Here are results for eleven substances from patent US7998989B2, “2-Imino-1,3-thiazoline-based compounds and T-type calcium channel inhibitors containing the same” (Korea Institute of Science and Technology, priority 2007, dated 2011).

In assay [1] the target is T1, α1G T-type calcium channel (Homo sapiens, UniProt O43497).
T1 construct: host or cells: HEK293
Nature of the assay: Assay for % inhibiting activity against T-type calcium channel using FDSS6000 (fluo-3 calcium imaging, KCl activation). The format is cell-based. The conditions noted are these: 10 μM; HEK293 cells stably expressing α1G T-type calcium channel and Kir2.1; compounds of the examples. The method, boiled down: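 Percent inhibition derived from […] area against untreated control (100%), after 75 s compound pre-exposure and 75 mM KCl activation. Cells: HEK293 with stable α1G plus Kir2.1, fluo-3/AM-labelled (5 μM), assayed in pH 7.4 HEPES containing 10 mM CaCl2.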

The target in assay [2] is T1, α1G T-type calcium channel. Put plainly: Electrophysiological whole cell patch clamp measurement of T-type calcium channel current in HEK293 cells. Type of assay: cell-based. The conditions noted are these: HEK293 cells expressing α1G; for HEK293cell (% Inhibition) 10 μM: inhibition of peak current; for IC50: read-out: IC50 (a1G). As to the method: In the present invention, in order to examine an efficient inhibitor against the T-type calcium channel, a primary assay for T-type calcium channel inhibiting activity was conducted by a high-efficient assay using FDSS6000, wherein mammal HEK293 cell lines (originated from human kidney carcinoma cells) that specifically express α1G of the T-type calcium channel was used for primary assay. Through the primary assay, compounds that show meaningful inhibition effects were selected. The selected compounds were used in a second assay for T-type calcium channel inhibiting activity using an electrophysiological whole cell patch clamp method, wherein mammal HEK293 cell lines (originated from human kidney carcinoma cells) that specifically express α1G of the T-type calcium channel was used for the second assay. Mibefradil, which had been developed as a T-type calcium channel inhibitor, was used as a reference.
10% Fetal bovine serum (FBS) and 1% penicillin/streptomycin (v/v) were added to Dulbecco's modified Eagle's medium (DMEM), to be used as a media solution. The cells were cultured in an incubator under a wet condition of 95% air/5% CO2 and a temperature of 36.5° C. The media solution was refreshed every 3 or 4 days, and the cells were sub-cultured every week. Only the cells that expressed α1G T-type calcium channel were cultured using a G-418 (0.5 mg/ml) solution. The recording of the cells used in the T-type calcium channel activity analysis was conducted at 2-7 days after the cells were culturing on a cover slip coated with poly-L-lysine (0.5 mg/ml) when conducting every sub-culture. For analysis at a single cell level, the T-type calcium channel current was measured by an electrophysiological whole cell patch clamp method using EPC-9 amplifier (HEKA, German).
As solutions for analyzing T-type calcium channel activity, a solution including NaCl 140 mM, CaCl2 2 mM, and HEPES10 mM (pH 7.4, Sigma; 4-(2-hydroxyethyl)piperazine-1-ethanesulfonic acid) was used as an extracellular solution, and a solution including KCl 130 mM, HEPES 10 mM (Sigma), EGTA 11 mM (ethylene glycol-bis(2-aminoethylether)-N,N,N′,N′-tetraacetic acid, Sigma), and MgATP 5 mM (pH 7.4, Sigma) was used as an intracellular solution. The protocol for T-type calcium channel activity that is activated at low voltage is as follows. A micro-glass electrode with resistance of 3-4 MΩ wherein the above-prepared intracellular solution was filled was pricked into a single cell, to make a whole-cell recording mode. Thereafter, the cell membrane potential was fixed to −100 mV, and then the inward current due to the T-type calcium channel activity when hypopolarizing to −30 mV (50 ms duration) was measured every 10 seconds.
Each compound to be tested was dissolved in 100% dimethylsulfoxide (DMSO) to make a 10 mM stock solution. The effect of the compound on the T-type calcium channel current compound was initially examined in the stock solution with the 1000-times diluted concentration of 10 μM (containing 0.1% DMSO) and then examined in the solution with the concentration for IC50 measurement (mostly 0.1 to 100 μM), to obtain an IC50 value. More specifically, the cells were treated in each compound together with the extracellular solution for 30 to 60 seconds, and the inhibition level of peak current induced by the compound was calculated as a percentage, to obtain the % inhibition value as shown in Table 4.
Background: Patch clamp records ionic current or voltage across a cell membrane.

What is called IC50 is the concentration that gives 50% inhibition.

T1 sequence (O43497 whole entry): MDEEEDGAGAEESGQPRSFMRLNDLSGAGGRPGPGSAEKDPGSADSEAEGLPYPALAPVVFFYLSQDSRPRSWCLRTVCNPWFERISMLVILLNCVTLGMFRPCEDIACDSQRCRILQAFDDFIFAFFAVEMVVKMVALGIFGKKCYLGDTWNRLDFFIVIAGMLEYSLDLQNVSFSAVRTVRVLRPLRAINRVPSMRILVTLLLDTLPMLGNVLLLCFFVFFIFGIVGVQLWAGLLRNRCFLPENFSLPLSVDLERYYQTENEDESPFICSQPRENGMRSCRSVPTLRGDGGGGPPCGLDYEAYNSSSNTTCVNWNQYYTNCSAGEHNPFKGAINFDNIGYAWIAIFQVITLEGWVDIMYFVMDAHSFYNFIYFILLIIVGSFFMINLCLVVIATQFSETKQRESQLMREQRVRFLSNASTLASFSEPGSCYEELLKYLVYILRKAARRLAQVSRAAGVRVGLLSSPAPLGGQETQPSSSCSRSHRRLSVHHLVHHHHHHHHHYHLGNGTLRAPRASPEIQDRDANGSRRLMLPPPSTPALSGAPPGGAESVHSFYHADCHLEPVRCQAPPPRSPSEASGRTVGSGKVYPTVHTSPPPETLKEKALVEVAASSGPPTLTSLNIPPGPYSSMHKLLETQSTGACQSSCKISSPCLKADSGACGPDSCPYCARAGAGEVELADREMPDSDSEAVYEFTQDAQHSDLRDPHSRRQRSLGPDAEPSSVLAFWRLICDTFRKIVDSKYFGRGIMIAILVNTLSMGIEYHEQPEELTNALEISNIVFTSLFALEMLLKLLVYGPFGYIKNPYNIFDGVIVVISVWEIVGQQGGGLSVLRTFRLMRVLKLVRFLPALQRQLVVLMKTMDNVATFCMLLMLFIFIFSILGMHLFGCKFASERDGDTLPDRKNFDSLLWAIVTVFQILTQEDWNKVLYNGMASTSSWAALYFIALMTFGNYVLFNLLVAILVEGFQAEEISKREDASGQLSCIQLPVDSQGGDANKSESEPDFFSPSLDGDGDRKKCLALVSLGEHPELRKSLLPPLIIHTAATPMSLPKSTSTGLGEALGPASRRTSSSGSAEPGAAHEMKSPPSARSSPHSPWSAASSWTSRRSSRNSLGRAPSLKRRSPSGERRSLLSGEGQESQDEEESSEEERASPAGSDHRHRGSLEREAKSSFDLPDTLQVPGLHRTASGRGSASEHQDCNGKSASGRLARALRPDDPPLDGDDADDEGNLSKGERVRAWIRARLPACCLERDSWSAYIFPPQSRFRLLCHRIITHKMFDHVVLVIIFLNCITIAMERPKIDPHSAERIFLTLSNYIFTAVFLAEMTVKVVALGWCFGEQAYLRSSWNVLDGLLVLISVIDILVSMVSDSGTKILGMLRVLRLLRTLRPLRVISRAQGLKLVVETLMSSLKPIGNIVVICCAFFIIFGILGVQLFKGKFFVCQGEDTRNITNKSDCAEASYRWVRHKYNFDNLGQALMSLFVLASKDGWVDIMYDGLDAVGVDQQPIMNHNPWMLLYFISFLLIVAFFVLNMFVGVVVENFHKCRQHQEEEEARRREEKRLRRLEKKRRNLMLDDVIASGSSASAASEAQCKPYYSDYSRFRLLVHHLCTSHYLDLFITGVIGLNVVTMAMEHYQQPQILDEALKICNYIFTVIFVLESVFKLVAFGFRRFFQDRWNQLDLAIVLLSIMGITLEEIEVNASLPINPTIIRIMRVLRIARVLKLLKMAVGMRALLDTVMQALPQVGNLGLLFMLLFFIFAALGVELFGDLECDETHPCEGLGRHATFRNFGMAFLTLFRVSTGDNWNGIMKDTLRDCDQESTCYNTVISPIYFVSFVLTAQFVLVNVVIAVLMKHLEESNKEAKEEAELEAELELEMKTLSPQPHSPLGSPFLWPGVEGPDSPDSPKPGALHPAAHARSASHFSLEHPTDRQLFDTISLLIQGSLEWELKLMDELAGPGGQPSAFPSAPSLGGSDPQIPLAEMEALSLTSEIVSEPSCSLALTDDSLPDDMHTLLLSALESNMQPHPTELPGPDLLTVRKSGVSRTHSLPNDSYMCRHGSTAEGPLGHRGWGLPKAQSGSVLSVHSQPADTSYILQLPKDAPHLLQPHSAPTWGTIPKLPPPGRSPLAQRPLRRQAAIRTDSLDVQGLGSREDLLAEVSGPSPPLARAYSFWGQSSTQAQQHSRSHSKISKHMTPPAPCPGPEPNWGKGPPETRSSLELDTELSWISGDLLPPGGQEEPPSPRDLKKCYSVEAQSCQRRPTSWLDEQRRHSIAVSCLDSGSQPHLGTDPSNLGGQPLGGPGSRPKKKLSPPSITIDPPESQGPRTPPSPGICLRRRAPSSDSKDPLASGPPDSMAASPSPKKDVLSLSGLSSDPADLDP

Turning to “[2-(1-adamantyl)imino-3-methyl-1,3-thiazolidine-4-yl]-N-(4-trifluoromethylphenyl)-acetamide hydrochloride [KHG24240]”, the “FDSS (% inhibition)/10uM” value in assay [1] came out at 70.68%. In assay [2], the “HEK293cell (% Inhibition) 10 μM” value worked out at 96.2 ± 1.1% and the IC50 turned out to be 230 ± 20 nM.
In the same order, the values of “[2-(1-adamantyl)imino-3-methyl-1,3-thiazolidine-4-yl]-N-(5-chloro-2-fluorophenyl)-acetamide hydrochloride [KHG24242]” are 53.38%, 85.2 ± 1.3% and 970 ± 140 nM.
On the same counts, the results for “[2-(1-adamantylimino)-3-cyclopropyl-1,3-thiazolidine-4-yl]-N-(4-isopropylphenyl)-acetamide hydrochloride [KHG24788]” are 72.88%, 95.3 ± 0.4% and 310 ± 20 nM.
For “[2-(1-adamantylimino)-3-cyclopropyl-1,3-thiazolidine-4-yl]-N-(4-n-butylphenyl)-acetamide hydrochloride [KHG24789]”, the “FDSS (% inhibition)/10uM” value in assay [1] came out at 78.21%. In assay [2], the “HEK293cell (% Inhibition) 10 μM” value stood at 95.1 ± 0.7% and the IC50 amounted to 190 ± 20 nM.
As for “[2-(1-adamantylimino)-3-cyclopropyl-1,3-thiazolidine-4-yl]-N-(4-phenoxyphenyl)-acetamide hydrochloride [KHG24800]”, the “FDSS (% inhibition)/10uM” value in assay [1] was 83.5%. For the same substance, in assay [2], the “HEK293cell (% Inhibition) 10 μM” value turned out to be 95.4 ± 0.5% and the IC50 was 430 ± 70 nM.
For the substance “[2-(1-adamantylimino)-3-cyclopropyl-1,3-thiazolidine-4-yl]-N-(4-trifluoromethylphenyl)-acetamide hydrochloride [KHG24790]”, in assay [1], the “FDSS (% inhibition)/10uM” value worked out at 73.05%. Further, in assay [2], the “HEK293cell (% Inhibition) 10 μM” value was 94.8 ± 0.9% and the half-maximal inhibitory concentration (IC50) is 240 ± 10 nM.
Regarding “[2-(1-adamantylimino)-3-ethyl-1,3-thiazolidine-4-yl]-N-(4-ethylphenyl)-acetamide hydrochloride [KHG24847]”, the “FDSS (% inhibition)/10uM” value in assay [1] stood at 72.23%. For the same substance, in assay [2], the “HEK293cell (% Inhibition) 10 μM” value is recorded as 95.5 ± 2.7% and the IC50 was 350 ± 10 nM.
For “[2-(1-adamantylimino)-3-ethyl-1,3-thiazolidine-4-yl]-N-(4-trifluoromethylphenyl)-acetamide hydrochloride [KHG24821]”, in assay [1], the “FDSS (% inhibition)/10uM” value is on record as 73.69%. Moreover, in assay [2], the “HEK293cell (% Inhibition) 10 μM” value is reported as 92.3 ± 1.8% and the IC50 amounted to 360 ± 20 nM.
On to “[2-(1-adamantylimino)-3-n-propyl-1,3-thiazolidine-4-yl]-N-(4-chloro-2-fluorophenyl)-acetamide hydrochloride [KHG24816]”, for which the “FDSS (% inhibition)/10uM” value in assay [1] is given as 80.83%. Moreover, in assay [2], the “HEK293cell (% Inhibition) 10 μM” value is reported as 95.6 ± 0.8% and the IC50 worked out at 510 ± 10 nM.
On the same counts, the results for “[2-(1-adamantylimino)-3-n-propyl-1,3-thiazolidine-4-yl]-N-(4-ethylphenyl)-acetamide hydrochloride [KHG24814]” are 76.32%, 96.9 ± 1.8% and 300 ± 10 nM.
For “[2-(1-adamantylimino)-3-n-propyl-1,3-thiazolidine-4-yl]-N-(4-fluorophenyl)-acetamide hydrochloride [KHG24811]”, the “FDSS (% inhibition)/10uM” value in assay [1] is 71.82%. In addition, in assay [2], the “HEK293cell (% Inhibition) 10 μM” value was determined as 94.8 ± 0.7% and the concentration for half-maximal inhibition (IC50) stood at 600 ± 40 nM.
